This is an account of results in US4272437A, “Antibacterial agents, and 4-thio azetidinone intermediates” (priority 1979, dated 1981).

The test system of one test is Str. faecalis A-20688. The test can be described thus: MIC, tube dilution, Streptococcus faecalis A20688. It is filed as cell-based. The following applies: overnight 37° C.; for MIC: Enterococcus faecalis, A20688, Str. faecalis A20688, read-out: Minimum Inhibitory Concentration (M.I.C.). The text has this: (§1) Representative compounds of the present invention were subjected to in vitro antibiotic screening against a variety of microorganisms.

The subject of a further test is Ser. marcescens A-20019. The test can be described thus: MIC, tube dilution, Serratia marcescens A20019. It counts as cell-based. The note with it: overnight 37° C.; for MIC: Serratia marcescens, A20019, Serratia marcescens A20019, read-out: Minimum Inhibitory Concentration (M.I.C.).
Text: as §1

Another test has as its system Staph. aureus A-9537. The test can be described thus: MIC, tube dilution, Staphylococcus aureus A9537. The following applies: overnight 37° C., Nutrient Broth; for MIC: Staphylococcus aureus, A9537, Staph. aureus A9537, read-out: Minimum Inhibitory Concentration (M.I.C.). It counts as cell-based.
Text: as §1

Test [1] relates to Staph. aureus A-9537 and 50% serum. The test can be described thus: MIC, tube dilution, Staph. aureus A9537 + 50% serum. The following applies: overnight 37° C.; for MIC: Staphylococcus aureus, read-out: Minimum Inhibitory Concentration (M.I.C.). It counts as cell-based, Staphylococcus aureus.
Text: as §1

For a further test, the system named is Pr. mirabilis A-9900. In words: MIC, tube dilution, Proteus mirabilis A9900. It is filed as cell-based. The following applies: overnight 37° C.; for MIC: Proteus mirabilis, A9900, Proteus mirabilis A9900, read-out: Minimum Inhibitory Concentration (M.I.C.).
Text: as §1

The subject of test [2] is Providencia stuartii A21205. In words: MIC, tube dilution, Providencia stuartii (Pr. rettgeri) A21205. It is filed as cell-based. The following applies: Providencia stuartii.
Text: as §1

The subject of a further test is E. coli A-20341-1. The test can be described thus: MIC, tube dilution, Escherichia coli A20341-1. It is filed as cell-based.
Text: as §1

Test [3] has as its system Klebsiella species A20468. The test can be described thus: MIC, tube dilution, Klebsiella species A20468. It counts as cell-based. The following applies: Klebsiella species (K. pneumoniae) A20468, overnight 37° C.; for MIC: read-out: Minimum Inhibitory Concentration (M.I.C.).
Text: as §1

The next test relates to E. coli A-15119. In words: MIC, tube dilution, Escherichia coli A15119. It counts as cell-based. The following applies: overnight 37° C.; for MIC: Escherichia coli, A15119, E. coli A15119, read-out: Minimum Inhibitory Concentration (M.I.C.).
Text: as §1

A further test has as its system Pr. morganii A-15153. The test can be described thus: MIC, tube dilution, Proteus morganii A15153. It is filed as cell-based. The following applies: overnight 37° C.; for MIC: Morganella morganii, A15153, Proteus morganii A15153, read-out: Minimum Inhibitory Concentration (M.I.C.).
Text: as §1

Another test concerns S. aureus A9537. In words: In vivo protection of mice, lethal infection with S. aureus A9537. The note with it: Staphylococcus aureus, A9537, im, read-out: PD50. As for the experimental part: Representative compounds of the present invention were also tested in vivo in mice and their PD50 (dose of compound in mg/kg required to protect 50% of the treated mice against an otherwise lethal infection of a micro-organism) values determined with respect to the test organisms shown below.

Test [4] deals with Staph. aureus (Pen-Res) A-9606. The test can be described thus: MIC, tube dilution, Staphylococcus aureus A9606 (Pen-Res). It counts as cell-based. The note with it: Staph. aureus A9606 (Pen-Res), overnight 37° C.; for MIC: Staphylococcus aureus, read-out: Minimum Inhibitory Concentration (M.I.C.).
Text: as §1

For a further test, the system named is Ent. cloacae A-9659. The test can be described thus: MIC, tube dilution, Enterobacter cloacae A9659. The following applies: overnight 37° C.; for MIC: Enterobacter cloacae, A9659, Enterobacter cloacae A9659, read-out: Minimum Inhibitory Concentration (M.I.C.). It is filed as cell-based.
Text: as §1

The next test deals with Pr. vulgaris A-9716. The test can be described thus: MIC, tube dilution, Proteus vulgaris / Proteus mirabilis A9716. It is filed as cell-based, Proteus vulgaris (name changed to Proteus mirabilis). The following applies: overnight 37° C.; for MIC: Proteus vulgaris, A9716, Proteus vulgaris / Proteus mirabilis A9716, read-out: Minimum Inhibitory Concentration (M.I.C.).
Text: as §1

The subject of test [5] is Staph. aureus (Meth-Res) A-15097. In words: MIC, tube dilution, Staphylococcus aureus A15097 (Meth-Res). It counts as cell-based. The note with it: Staph. aureus A15097 (Meth-Res), overnight 37° C.; for MIC: Staphylococcus aureus, read-out: Minimum Inhibitory Concentration (M.I.C.).
Text: as §1

Another test concerns K. pneumoniae A-15130. The test can be described thus: MIC, tube dilution, Klebsiella pneumoniae A15130. It counts as cell-based. The note with it: overnight 37° C.; for MIC: Klebsiella pneumoniae, A15130, K. pneumoniae A15130, read-out: Minimum Inhibitory Concentration (M.I.C.).
Text: as §1

The next test deals with Ps. aeruginosa A-21213. In words: MIC, tube dilution, Pseudomonas aeruginosa A21213. The following applies: Pseudomonas aeruginosa A21213; overnight 37° C.; read-out: Minimum Inhibitory Concentration (M.I.C.). It is filed as cell-based.
Text: as §1

A further test deals with Str. pneumoniae A-9585. In words: MIC, tube dilution, Streptococcus pneumoniae A9585. It counts as cell-based. The note with it: Streptococcus pneumoniae, A9585, Str. pneumoniae A9585; overnight 37° C., Nutrient Broth; read-out: Minimum Inhibitory Concentration (M.I.C.).
Text: as §1

The test system of the next test is Str. pyogenes A-9604. The test can be described thus: MIC, tube dilution, Streptococcus pyogenes A9604. It counts as cell-based. The note with it: Streptococcus pyogenes, A9604, Str. pyogenes A9604; overnight 37° C., Nutrient Broth; read-out: Minimum Inhibitory Concentration (M.I.C.).
Text: as §1

Another test concerns Ent. cloacae A-9656. In words: MIC, tube dilution, Enterobacter cloacae A9656. The note with it: overnight 37° C., read-out: Minimum Inhibitory Concentration (M.I.C.). It is filed as cell-based.
Text: as §1

Another test relates to Ps. aeruginosa A-9843A. The test can be described thus: MIC, tube dilution, Pseudomonas aeruginosa A9843A. It is filed as cell-based. The note with it: Pseudomonas aeruginosa, A9843A, read-out: Minimum Inhibitory Concentration (M.I.C.), Pseudomonas aeruginosa A9843A; overnight 37° C.
Text: as §1

Where [6] appears, read: A21205, Providencia stuartii (Pr. rettgeri) A21205, overnight 37° C., read-out: Minimum Inhibitory Concentration (M.I.C.).

≈ marks a conversion by molar mass, not a printed value. Where “and” joins values, the source holds several entries; their conditions need not be identical. Equal values may be shown once. Read-outs that look alike come from different tables or passages of the source.

For the compound `O=C([O-])C1=C(Cc2ccccc2)S[C@@H]2CC(=O)N12.[Na+]` [Example 13, Sodium 2-Benzylpenem-3-carboxylate], the “Minimum Inhibitory Concentration (M.I.C.)” value in the test on Str. faecalis A-20688 (Str. faecalis A20688) is 32 µg/mL; with Ser. marcescens A-20019 (Serratia marcescens A20019), 32 µg/mL and 63 µg/mL; in the test with Staph. aureus A-9537 (Staph. aureus A9537), “.13 µg/mL”; in test [1], > 63 µg/mL; with Pr. mirabilis A-9900 (Proteus mirabilis A9900) it was 2 µg/mL; in the test on E. coli A-20341-1 (E. coli A20341-1; overnight 37° C.), 125 µg/mL. In addition, the “Minimum Inhibitory Concentration (M.I.C.)” value is 125 µg/mL in [3]; 4 µg/mL in the test with E. coli A-15119 (E. coli A15119); 4 µg/mL in the test with Pr. morganii A-15153 (Proteus morganii A15153); 1 µg/mL in test [4]; 63 µg/mL in the test on Ent. cloacae A-9659 (Enterobacter cloacae A9659); 2 µg/mL in the test with Pr. vulgaris A-9716 (Proteus vulgaris / Proteus mirabilis A9716). The “Minimum Inhibitory Concentration (M.I.C.)” value (in test [5]; with K. pneumoniae A-15130 (K. pneumoniae A15130)) was 63 µg/mL each time. The MIC in test [2] (A21205, read-out: Minimum Inhibitory Concentration (M.I.C.)) was found to be 4 µg/mL. The ED50 in the test on S. aureus A9537 was 12.5 mg/kg.
In the case of `O=C(O)CCC1=C(C(=O)O)N2C(=O)CC2S1` (centres unmarked) [Preparation 11, Disodium 2-(2-carboxyethyl)penem-3-carboxylate], the MIC with Ps. aeruginosa A-21213 is > 125 µg/mL; in the test with Str. pneumoniae A-9585 it was 0.13 µg/mL; in the test on Str. faecalis A-20688, 125 µg/mL; in the test on Ser. marcescens A-20019 it was 4 µg/mL; in the test with Staph. aureus A-9537 it was 16 µg/mL; in [1] it was > 63 µg/mL. Further, the MIC was 4 µg/mL with Str. pyogenes A-9604; 4 µg/mL with Pr. mirabilis A-9900; 1 µg/mL in test [2] (setting [6]); 63 µg/mL in the test with E. coli A-20341-1 (Escherichia coli, A203411, E. coli A20341-1; overnight 37° C.; read-out: Minimum Inhibitory Concentration (M.I.C.)); > 125 µg/mL in [3]; 16 µg/mL in the test with E. coli A-15119. The MIC in the test with Pr. morganii A-15153 is 63 µg/mL; in test [4], 32 µg/mL; in the test with Ent. cloacae A-9659, 63 µg/mL; in the test with Pr. vulgaris A-9716, 4 µg/mL; with Ent. cloacae A-9656 (Enterobacter cloacae, A9656, Enterobacter cloacae A9656) it was 63 µg/mL; in test [5] it was 63 µg/mL. Besides, the MIC is > 125 µg/mL in the test on Ps. aeruginosa A-9843A and 63 µg/mL with K. pneumoniae A-15130.
Turning to `O=C(O)C1=C(COc2ccccc2)S[C@@H]2CC(=O)N12` [Preparation 12, 2-Phenoxymethylpenem-3-carboxylic Acid], the MIC in the test with Ps. aeruginosa A-21213 is > 125 µg/mL; in the test on Str. pneumoniae A-9585 it was 0.5 µg/mL (≈ 1.8 µM); in the test with Str. faecalis A-20688, 63 µg/mL (≈ 227 µM); in the test with Ser. marcescens A-20019 it was > 125 µg/mL; in the test on Staph. aureus A-9537, 1 µg/mL (≈ 3.61 µM); in [1] it was > 63 µg/mL. The MIC is 0.5 µg/mL (≈ 1.8 µM) in the test on Str. pyogenes A-9604; 16 µg/mL (≈ 57.7 µM) in the test with Pr. mirabilis A-9900; 63 µg/mL (≈ 227 µM) in test [2] (setting [6]); > 125 µg/mL with E. coli A-20341-1 (Escherichia coli, A203411; E. coli A20341-1; overnight 37° C.; read-out: Minimum Inhibitory Concentration (M.I.C.)); > 125 µg/mL in test [3]; 63 µg/mL (≈ 227 µM) in the test on E. coli A-15119. Also, the MIC in the test with Pr. morganii A-15153 is 16 µg/mL (≈ 57.7 µM); in [4] it was 0.5 µg/mL (≈ 1.8 µM); in the test with Ent. cloacae A-9659, > 125 µg/mL; in the test with Pr. vulgaris A-9716 it was 16 µg/mL (≈ 57.7 µM); with Ent. cloacae A-9656 (Enterobacter cloacae A9656), > 125 µg/mL; in [5], 1 µg/mL (≈ 3.61 µM). For the same compound, the MIC in the test with Ps. aeruginosa A-9843A and in the test with K. pneumoniae A-15130 was > 125 µg/mL in each case.
